Usually inhibition stands for the percentage by which the read-out fell short of the control. For orientation: IC50 means the concentration needed to halve the response being measured.

The values below come from patent publication US5350748A, “3-thio or amino substituted-benzo[b]thiophene-2-carboxamides and 3-oxygen, thio, or amino substituted-benzofuran-2-carboxamides as inhibitors of cell adhesion” (Warner-Lambert Company, priority 1993, dated 1994).

In assay [1] the test system is HIV-1 activation in OM-10.1 cells. Particulars: poster NCDDG/AIDS, San Diego, 1991; some 48 compounds evaluated; cited from earlier work.
Assay [2] deals with human neutrophil adhesion to TNF-α-stimulated human umbilical vein endothelial cells (HUVEC). As to the kind of experiment: Inhibition of human neutrophil adhesion to TNF-α-stimulated human umbilical vein endothelial cells (51Cr-labeled neutrophils). Type of assay: cell-based. Particulars: neutrophils labeled with Cr, read-out: Adhesion ECA, % inhibition. The method, then:
(§1) The 3-thiol, thioether, amino, alkylamino, or arylamino-benzo[b]thiophene-2-carboxamides and 3-alkoxy, aryloxy, thiol, thioether, amino, alkylamino, or arylamino-benzofuran-2-carboxamides have been shown in an in vitro assay to prevent the adhesion of neutrophils to human umbilical vein endothelial cells (HUVECS) stimulated with TNF-α. In this assay, HUVECS are stimulated with TNF-α for 4 hours, after which the cells are assayed for their ability to adhere to human neutrophils labeled with either ^51 Cr or calcein, a fluorescent dye. The details of this assay are described in the DETAILED DESCRIPTION.
Method for Determining the Inhibition of Human Neutrophil Adhesion to TNF-α, IL-1α, and LPS-Stimulated Human Umbilical Vein Endothelial Cells
(§2) Neutrophils were isolated from anticoagulant-treated venous blood obtained from healthy human volunteers according to the method of Ferrante and Thong [J. Immunol. Methods 24, 389-93 (1978)]. The cell preparations consisted of greater than 98% neutrophils.
Second passage human umbilical vein endothelial cells (HUVEC) (Clonetics, San Diego, Calif.) were seeded into Falcon 24-well cell culture plates (Becton Dickinson, Lincoln Park, N.J.) at approximately 2×10^4 cells per well. The cells were grown to confluent monolayers in endothelial basal medium (EBM, Clonetics) supplemented with 5% fetal calf serum (Hyclone Laboratories, Logan, Utah), 10 ng/mL EGF, 1 μg/mL hydrocortisone, 0.4% bovine brain extract (Clonetics) in 5% CO2 at 37° C.
Neutrophils (30×10^6) were labeled for 60 minutes at 37° C. with 100 μCi Na^51 CrO4 (ICN Biomedicals, Costa Mesa, Calif.) in 2.0 mL Ca^2+ - and Mg^2+ -free Hanks' balanced salt solution (HBSS, GIBCO Laboratories, Grand Island, N.Y.). […]
Stimulation of HUVEC with tumor necrosis factor-α (TNF-α) (Genzyme, Cambridge, Mass.), interleukin (IL-1α) (Genzyme) or E. coli 0111: B4 lipopolysaccharide (LPS) (Sigma) in the presence or absence of drug was initiated 4 hours prior to the addition of neutrophils. […] Lysates were collected and the radioactivity in each well was determined by gamma ray spectroscopy.

Assay [3] has the same test system. The assay can be described thus: Modified method: inhibition of human neutrophil adhesion to TNF-α-stimulated human umbilical vein endothelial cells (calcein-labeled neutrophils). Particulars: footnote a, neutrophil label not given, IC50 by linear regression from 33.3, 10.0, 3.3 and 1.0 μM, read-out: Adhesion ECA, IC50. Type of assay: cell-based. On the procedure:
as §1, §2
Modified Method for Determining the Inhibition of Human Neutrophil Adhesion to TNF-α, IL-1α, and LPS Stimulated Human Umbilical Vein Endothelial Cells
The previous assay using ^51 Cr labeled human neutrophils has been modified. The neutrophils are now labeled with the fluorescent dye calcein. The current method allows for quantification of neutrophil adherence by fluorescence spectroscopy.
Second passage HUVEC (Clonetics Corporation, San Diego, Calif., CC-2617) were seeded into Coring (Corning glass works, Corning, N.Y.) 96-well cell culture plates at approximately 5×10^3 cells/well and grown to confluency in supplemented endothelial basal medium (EBM, MCDB-131, Clonetics, 10 ng/mL EGF, 1 μg/mL hydrocortisone, 0.4% bovine brain extract, 5% Fetal Bovine Serum). One day prior to running the assay, typically 3 days postseeding, the cultures were refed with 0.2 mL/well supplemented EBM (S-EBM).
Test compounds were prepared as 10 mL stock solutions at a concentration of 1.0 mM. The compounds were initially solubilized in 0.1 mL DMSO followed by the addition of 9.9 mL S-EBM. The drug preparations were then diluted in one step to a concentration of 66.6 μM or 200 μM. Solubilizations and dilutions were performed in polystyrene containers.
Recombinant human tumor necrosis factor-α (TNF, Genzyme, Boston, Mass., code TNF-H) was prepared at 400 U/mL in S-EBM. Stock TNF was prepared to 20,000 U/mL in Delbecco's phosphate-buffered saline (PBS, Gibco, Grand Island N.Y.) plus 0.1% BSA and stored at -70° C. HUVEC were washed one time with 0.2 mL warm unsupplemented EBM and then stimulated for 4hours at 37° C. with 200 U/mL TNF in the presence of 33.3 μM or 100 μM test compound. This was accomplished by adding 0.1 mL of 400 U/mL TNF and 0.1 mL 66.6 μM or 0.1 mL of 200 μM test compound. These additions were done slowly as to not disrupt the HUVEC monolayer. Each compound was tested in six wells. Unstimulated (vehicle control) and TNF-stimulated without test compound treatments were also run in each plate.
One hour prior to adding the neutrophils (isolated as previously described) to the HUVEC, neutrophils (5×10^6 /mL) were labeled for 30 minutes at 37° C. with 5 μM calcine-AM (Molecular Probes, Eugene, Oreg.) in Hanks' balanced salt solution plus 0.45% BSA. Stock calcein was prepared to 5mM in anhydrous DMSO and stored desiccated at -20° C. At the end of the incubation the cells were washed two times in cold HBSS and resuspended to a final concentration of 1×10^6 cells/mL in unsupplemented EBM.
At the end of the 4-hour stimulation and immediately prior to the addition of the neutrophils to the HUVEC monolayer, the plates were washed with 0.2 ml warm unsupplemented EBM to remove TNF and drug. Neutrophils (1×10^5 cells) were slowly added to each of the treated wells and incubated for 30 minutes at 37° C. At the end of the incubation the plates were washed two times with 0.2 mL warm unsupplemented EBM followed by a final addition of 0.1 mL for plate scanning.
The fluorescence was determined using a Millipore Cytofluor 2300 system (excitation=480, emission=530, sensitivity=4). […]

The subject of assay [4] is HIV-1 activation in OM-10.1 cells. As to the kind of experiment: Inhibition of activation of latent HIV-1 in chronically infected OM-10.1 cells. Type of assay: cell-based. The conditions noted are these: Human immunodeficiency virus 1. From the text: The cellular pathways involved in mediating the activating signal from the plasma membrane to the integrated virus, resulting in HIV-1 expression, are much less clear. Recently, the development of a reliable and simple system for evaluating compounds that could prevent activation of latent HIV was reported at the National […] (NCDDG)/AIDS by P. Feorino, S. T. Butera, T. M. Folks, and R. F. Schinazi, San Diego, Calif., Nov. 3-7, 1991. The assay system employed the OM-10.1 cell line, a unique chronically-infected promyelocytic clone which remains CD4+ until HIV-1 activation with tumor necrosis factor-α. The expression of CD4+ on the cell surface and the activity of reverse transcriptase are used as markers for quantitating viral expression. Alternatively, other HIV markers, such as protease activity, which are known to those of skill in the art can be used. OM-10.1 cells remain CD4^+ until viral activation and respond to tumor necrosis factor induction, and therefore, these cultures are used to conveniently and rapidly examine pharmacologics for an ability to prevent CD4^+ down modulation (decrease in expression of CD4^+ on the cell surface) and HIV-1 expression.
A variety of compounds known to have antiviral properties against either acutely or chronically infected cells were evaluated for their ability to inhibit HIV expression in these OM-10.1 cells. […]

For “interferon Y: interferon Y, considered modest inhibitor of the activation of HIV-1 (probably interferon gamma)”, the “inhibition of activation of HIV-1 in OM-10.1 cells” value (shortened to “inhibition … in OM-10.1 cells”) in assay [1] was “modest inhibitors of the activation of HIV-1”.
With `CC(C)Sc1c(C(N)=O)sc2ccccc12` [Example 2, 3-[(1-Methylethyl)thio]benzo[b]thiophene-2-carboxamide], in assay [2], the inhibition at 100 µM is 34%.
The same measure, in the same setting: to `COc1ccc2sc(C(N)=O)c(SC)c2c1` [Example 4, 5-Methoxy-3-(methylthio)benzo[b]thiophene-2-carboxamide] belongs 81%.
On to `COc1ccc2sc(C(N)=O)c(Sc3ccccc3)c2c1` [Example 5, 5-Methoxy-3-(phenylthio)benzo[b]thiophene-2-carboxamide], for which, in assay [2], the inhibition at 100 µM came out at 48%.
In the case of `Cc1cn([C@H]2C[C@H](F)[C@@H](CO)O2)c(=O)[nH]c1=O` [3'-fluoro-3'-deoxythymidine (FLT), 3'-fluoro-3'-deoxythymidine], the “inhibition … in OM-10.1 cells” value in assay [1] is recorded as “modest inhibitors of the activation of HIV-1”.
For the molecule `COc1ccc2sc(C(N)=O)c(SC(C)C)c2c1` [Example 1, 5-Methoxy-3-[(1-methylethyl)thio]benzo[b]thiophene-2-carboxamide], the IC50 in assay [3] is 11.7 µM; in assay [4], 0.4 µM.
For the molecule `CC(=O)N(O)CCCCCNC(=O)CCC(=O)N(O)CCCCCNC(=O)CCC(=O)N(O)CCCCCN` [desferrioxamine], the “inhibition … in OM-10.1 cells” value in assay [1] is on record as “modest inhibitors of the activation of HIV-1”.
